Test results taken from ChEMBL document CHEMBL1150396, “New PPARgamma ligands based on 2-hydroxy-1,4-naphthoquinone: computer-aided design, synthesis, and receptor-binding studies” (Bioorg Med Chem Lett, 2008).

molecular target: T1, Peroxisome proliferator-activated receptor gamma (Rattus norvegicus, UniProt O88275); assay: Displacement of [3H]rosigliatzone from PPARgamma in rat adipocytes; format: cell-based
T1 sequence (O88275 whole entry): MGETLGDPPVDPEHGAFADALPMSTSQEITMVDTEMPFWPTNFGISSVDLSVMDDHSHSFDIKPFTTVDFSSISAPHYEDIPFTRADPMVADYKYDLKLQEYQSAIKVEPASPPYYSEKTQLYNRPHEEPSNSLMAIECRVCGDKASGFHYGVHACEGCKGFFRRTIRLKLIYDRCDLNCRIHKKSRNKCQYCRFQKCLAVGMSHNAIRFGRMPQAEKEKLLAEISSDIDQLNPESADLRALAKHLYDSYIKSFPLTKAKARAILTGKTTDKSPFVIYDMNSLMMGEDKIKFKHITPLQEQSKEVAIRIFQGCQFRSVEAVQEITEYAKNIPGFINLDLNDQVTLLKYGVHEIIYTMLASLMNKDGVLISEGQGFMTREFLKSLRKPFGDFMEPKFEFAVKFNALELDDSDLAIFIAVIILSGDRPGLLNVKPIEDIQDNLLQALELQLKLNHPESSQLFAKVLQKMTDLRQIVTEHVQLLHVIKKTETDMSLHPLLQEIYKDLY

IC50 [nM]	Compound
3600	O=C1C(O)=C(Cc2ccc(OCc3ccccc3)cc2)C(=O)c2ccccc21
56200	COc1ccc(OCCOc2ccc(CC3=C(O)C(=O)c4ccccc4C3=O)cc2)cc1
700	CCc1ccc(CCOc2ccc(CC3SC(=O)NC3=O)cc2)nc1 (centres undefined) [PIOGLITAZONE]
1900	N#Cc1ccc(OCCOc2ccc(CC3=C(O)C(=O)c4ccccc4C3=O)cc2)cc1
200	O=C1C(O)=C(Cc2ccc(OCc3ccccc3F)cc2)C(=O)c2ccccc21

molecular target: T2, Peroxisome proliferator-activated receptor gamma (Rattus norvegicus) (UniProt O88275); assay: Displacement of [3H]rosigliatzone from PPARgamma in rat adipocytes at 0.1 uM; format: cell-based
T2 sequence (whole entry): T1 sequence (O88275 whole entry)

Activity [%]	Compound
< 20	O=C1C(O)=C(Cc2ccc(OCCOc3ccc4c(c3)CCC4)cc2)C(=O)c2ccccc21
< 20	Cc1ccc(OCCOc2ccc(CC3=C(O)C(=O)c4ccccc4C3=O)cc2)cc1
< 20	O=C1C(O)=C(Cc2ccc(OCCOc3ccc(Cl)cc3)cc2)C(=O)c2ccccc21
< 20	O=C1C(O)=C(Cc2ccc(OCCOc3cccc4ccccc34)cc2)C(=O)c2ccccc21
